Results: PubChem BioAssay AID1259407 (Chemical Carcinogenesis Research Information System (CCRIS), 2018)
Calls of active or inactive are those of the source. The rule behind the calls is not given here.

Tested on: CCRIS mutagenicity, Ames/micronucleus/aberration tests
Test: CCRIS mutagenicity studies
[1] = Test System: AMES SALMONELLA TYPHIMURIUM, Strain/Indicator: TA98, Metabolic Activation: NONE, Method: STANDARD PLATE
[2] = Test System: AMES SALMONELLA TYPHIMURIUM, Strain/Indicator: TA98, Metabolic Activation: RAT, LIVER, S-9, AROCLOR 1254, Method: STANDARD PLATE
[3] = Test System: AMES SALMONELLA TYPHIMURIUM, Strain/Indicator: TA100, Metabolic Activation: NONE, Method: STANDARD PLATE
[4] = Test System: AMES SALMONELLA TYPHIMURIUM, Strain/Indicator: TA100, Metabolic Activation: RAT, LIVER, S-9, AROCLOR 1254, Method: STANDARD PLATE
[5] = Test System: AMES SALMONELLA TYPHIMURIUM, Strain/Indicator: TA1535, Metabolic Activation: NONE, Method: STANDARD PLATE
[6] = Test System: AMES SALMONELLA TYPHIMURIUM, Strain/Indicator: TA1535, Metabolic Activation: RAT, LIVER, S-9, AROCLOR 1254, Method: STANDARD PLATE
[7] = Test System: AMES SALMONELLA TYPHIMURIUM, Strain/Indicator: TA1537, Metabolic Activation: NONE, Method: STANDARD PLATE
[8] = Test System: AMES SALMONELLA TYPHIMURIUM, Strain/Indicator: TA1537, Metabolic Activation: RAT, LIVER, S-9, AROCLOR 1254, Method: STANDARD PLATE
[9] = Test System: AMES SALMONELLA TYPHIMURIUM, Strain/Indicator: TA100, Metabolic Activation: NONE, Method: PREINCUBATION
[10] = Test System: AMES SALMONELLA TYPHIMURIUM, Strain/Indicator: TA98, Metabolic Activation: NONE, Method: PREINCUBATION
[11] = Test System: AMES SALMONELLA TYPHIMURIUM, Strain/Indicator: TA102, Metabolic Activation: NONE, Method: STANDARD PLATE

Cc1cccc2cc3c(ccc4ccccc43)cc12
mutagenic call (Test System: AMES SALMONELLA TYPHIMURIUM, Strain/Indicator: TA100, Metabolic Activation: RAT, INTACT HEPATOCYTES, AROCLOR 1254, Method: PREINCUBATION): active; positive
mutagenic call (Test System: AMES SALMONELLA TYPHIMURIUM, Strain/Indicator: TA100, Metabolic Activation: RAT, NADPH-FORTIFIED HOMOGENIZED HEPATOCYTES, AROCLOR 1254, Method: PREINCUBATION): active; positive
mutagenic call (Test System: AMES SALMONELLA TYPHIMURIUM, Strain/Indicator: TA100, Metabolic Activation: RAT, SONICATED HEPATOCYTES, AROCLOR 1254, Method: PREINCUBATION): active; positive

ONc1ccc(Sc2ccccc2)cc1
mutagenic call (Test System: AMES SALMONELLA TYPHIMURIUM, Strain/Indicator: TA98(1,8-DNP6), Metabolic Activation: NONE, Method: STANDARD PLATE): active; positive
mutagenic call (Test System: AMES SALMONELLA TYPHIMURIUM, Strain/Indicator: TA98(NR), Metabolic Activation: NONE, Method: STANDARD PLATE): active; positive
mutagenic call [1]: active; positive

O=[N+]([O-])c1ccccc1OS(=O)(=O)c1cccc2cccnc12
mutagenic call [1]: inactive; negative
mutagenic call [2]: active; positive
mutagenic call [3]: inactive; negative
mutagenic call [4]: active; positive
mutagenic call [5]: inactive; negative
mutagenic call [6]: inactive; negative
mutagenic call [7]: inactive; negative
mutagenic call [8]: inactive; negative

ClCOCCl
mutagenic call (Test System: AMES SALMONELLA TYPHIMURIUM, Strain/Indicator: G46, Metabolic Activation: NONE, Method: STANDARD PLATE): active; positive

Cc1cc(=O)oc2ccc3c(c12)C1(C)OOC1(C)O3 (stereo not drawn)
mutagenic call [9]: active; positive

COC(=O)/C(C#N)=C/c1ccc([N+](=O)[O-])o1
mutagenic call [10]: active; positive

CC(F)(Cl)Cl
mutagenic call (End Point: IN VIVO MICRONUCLEUS, Test System: BONE MARROW, Species: RAT, Strain/Sex: SPRAGUE-DAWLEY/FEMALE, Route: INHALATION): inactive; negative
mutagenic call (End Point: IN VIVO MICRONUCLEUS, Test System: BONE MARROW, Species: RAT, Strain/Sex: SPRAGUE-DAWLEY/MALE, Route: INHALATION): active; positive

c1ccc(Cn2ccnc2)cc1
mutagenic call [10]: inactive; negative
mutagenic call (Test System: AMES SALMONELLA TYPHIMURIUM, Strain/Indicator: TA98, Metabolic Activation: RAT, LIVER, S-9, N-BENZYLIMIDAZOLE, Method: PREINCUBATION): inactive; negative
mutagenic call (Test System: AMES SALMONELLA TYPHIMURIUM, Strain/Indicator: TA98, Metabolic Activation: RAT, LIVER, S-9, Method: PREINCUBATION): inactive; negative
mutagenic call [9]: inactive; negative
mutagenic call (Test System: AMES SALMONELLA TYPHIMURIUM, Strain/Indicator: TA100, Metabolic Activation: RAT, LIVER, S-9, N-BENZYLIMIDAZOLE, Method: PREINCUBATION): active; positive
mutagenic call (Test System: AMES SALMONELLA TYPHIMURIUM, Strain/Indicator: TA100, Metabolic Activation: RAT, LIVER, S-9, Method: PREINCUBATION): active; positive

COc1cccc2c1OC1(C)OOC21C (stereo not drawn)
mutagenic call [9]: active; positive

O=C(CCBr)N1CCN(C(=O)CCBr)CC1
mutagenic call [1]: inactive; negative
mutagenic call [3]: active; positive
mutagenic call [11]: inactive; negative
mutagenic call [7]: inactive; negative
mutagenic call (Test System: E. COLI, Strain/Indicator: WP2 (HCR), Metabolic Activation: NONE, Method: STANDARD PLATE): active; positive

CCOC(=O)[C@@H](N)CS
mutagenic call [11]: active; positive

CCc1cc(-c2ccccc2)cc(CC)c1N
mutagenic call [1]: inactive; negative
mutagenic call (Test System: AMES SALMONELLA TYPHIMURIUM, Strain/Indicator: TA98, Metabolic Activation: RAT LIVER S-9, AROCLOR, Method: STANDARD PLATE): inactive; negative
mutagenic call [3]: inactive; negative
mutagenic call (Test System: AMES SALMONELLA TYPHIMURIUM, Strain/Indicator: TA100, Metabolic Activation: RAT LIVER S-9, AROCLOR, Method: STANDARD PLATE): inactive; negative

COCC(O)Cn1cc([N+](=O)[O-])nc1Cl (stereo not drawn)
mutagenic call [1]: inactive; negative
mutagenic call (Test System: AMES SALMONELLA TYPHIMURIUM, Strain/Indicator: TA98, Metabolic Activation: RAT, LIVER, S-9, Method: STANDARD PLATE): active; positive
mutagenic call [3]: active; positive
mutagenic call (Test System: AMES SALMONELLA TYPHIMURIUM, Strain/Indicator: TA100, Metabolic Activation: RAT, LIVER, S-9, Method: STANDARD PLATE): active; positive

[S]=[Co]
mutagenic call (Test System: CHINESE HAMSTER G10, Strain/Indicator: G10 (GPT)/6-THIOGUANINE, Metabolic Activation: NONE): inactive; negative
mutagenic call (Test System: CHINESE HAMSTER G12, Strain/Indicator: G12 (GPT)/6-THIOGUANINE, Metabolic Activation: NONE): active; positive
mutagenic call (Test System: CHINESE HAMSTER V-79, Strain/Indicator: V-79 (HPRT)/6-THIOGUANINE, Metabolic Activation: NONE): inactive; negative

O=C(Cl)c1ccccc1[N+](=O)[O-]
mutagenic call (Test System: AMES SALMONELLA TYPHIMURIUM, Strain/Indicator: TA97, Metabolic Activation: HAMSTER, LIVER, S-9, AROCLOR 1254 (10%), Method: PREINCUBATION): active; positive
mutagenic call (Test System: AMES SALMONELLA TYPHIMURIUM, Strain/Indicator: TA97, Metabolic Activation: NONE, Method: PREINCUBATION): active; positive
mutagenic call (Test System: AMES SALMONELLA TYPHIMURIUM, Strain/Indicator: TA97, Metabolic Activation: RAT, LIVER, S-9, AROCLOR 1254 (10%), Method: PREINCUBATION): active; positive
mutagenic call (Test System: AMES SALMONELLA TYPHIMURIUM, Strain/Indicator: TA98, Metabolic Activation: HAMSTER, LIVER, S-9, AROCLOR 1254 (10%), Method: PREINCUBATION): active; positive
mutagenic call (Test System: AMES SALMONELLA TYPHIMURIUM, Strain/Indicator: TA98, Metabolic Activation: RAT, LIVER, S-9, AROCLOR 1254 (10%), Method: PREINCUBATION): active; positive
mutagenic call (Test System: AMES SALMONELLA TYPHIMURIUM, Strain/Indicator: TA98, Metabolic Activation: RAT, LIVER, S-9, KANECHLOR 500, Method: PREINCUBATION): active; positive
mutagenic call (Test System: AMES SALMONELLA TYPHIMURIUM, Strain/Indicator: TA100, Metabolic Activation: HAMSTER, LIVER, S-9, AROCLOR 1254 (10%), Method: PREINCUBATION): active; positive
mutagenic call [9]: active; positive
mutagenic call (Test System: AMES SALMONELLA TYPHIMURIUM, Strain/Indicator: TA100, Metabolic Activation: RAT, LIVER, S-9, AROCLOR 1254 (10%), Method: PREINCUBATION): active; positive
mutagenic call (Test System: AMES SALMONELLA TYPHIMURIUM, Strain/Indicator: TA100, Metabolic Activation: RAT, LIVER, S-9, KANECHLOR 500, Method: PREINCUBATION): active; positive
mutagenic call (Test System: AMES SALMONELLA TYPHIMURIUM, Strain/Indicator: TA1535, Metabolic Activation: HAMSTER, LIVER, S-9, AROCLOR 1254 (10%), Method: PREINCUBATION): inactive; negative
mutagenic call (Test System: AMES SALMONELLA TYPHIMURIUM, Strain/Indicator: TA1535, Metabolic Activation: NONE, Method: PREINCUBATION): inactive; negative
mutagenic call (Test System: AMES SALMONELLA TYPHIMURIUM, Strain/Indicator: TA1535, Metabolic Activation: RAT, LIVER, S-9, AROCLOR 1254 (10%), Method: PREINCUBATION): inactive; negative

C(=Nc1ccccc1)c1cccc2cccnc12
mutagenic call [1]: inactive; negative
mutagenic call [2]: inactive; negative
mutagenic call [3]: inactive; negative
mutagenic call [4]: active; positive
mutagenic call [5]: inactive; negative
mutagenic call [6]: inactive; negative
mutagenic call [7]: inactive; negative
mutagenic call [8]: inactive; negative

O=C(CCCN1CC=C(n2c(=O)[nH]c3ccccc32)CC1)c1ccc(F)cc1
mutagenic call (End Point: IN VITRO CHROMOSOMAL ABERRATIONS, Test System: HUMAN LYMPHOCYTES, Metabolic Activation: NONE): inactive; negative

ClCc1cc2cccc3ccc4c5ccccc5cc1c4c32
mutagenic call [1]: active; positive
mutagenic call [3]: active; positive

Cn1c(N)nc2ccc(C#N)cc21
mutagenic call (Test System: AMES SALMONELLA TYPHIMURIUM, Strain/Indicator: TA98, Metabolic Activation: RAT, LIVER, S-9, AROCLOR 1254, Method: PREINCUBATION): active; positive
